# Test results reported in patent CN104546697A, “一种右旋布洛芬注射液药物组合物及其制备方法” (CHENGDU EASTON PHARMACEUTICAL Co Ltd, priority 2013, dated 2015).
# Tests used:
# [1] = background art; cited from earlier work
# [2] = tested on: carrageenan-induced rise of body temperature in rats [大鼠角叉菜胶诱导的体温升高]; test: Effect on carrageenan-induced rise of body temperature in rats; type: in vivo, SD rat; details: rat, IV
# [3] = tested on: pain threshold in the mouse hot plate method [小鼠热板法痛阈]; test: Effect on pain threshold in the mouse hot plate method; type: in vivo, Kunming mouse, female; details: IV, dose exceeding 80mg/kg
Structure (SMILES),pharmacological activity relative to levorotatory ibuprofen [1] [fold],pharmacological activity relative to racemate [1] [fold],"dose range with the best, dose-dependent effect ([2]; carrageenan-induced rise of body temperature)",temperature-lowering effect above the best dose range ([2]; dose exceeding 40mg/kg),analgesic effect above the best dose range [3],pharmacological activity [1]
CC(C)Cc1ccc([C@H](C)C(=O)O)cc1 [右旋布洛芬],160,1.6,7.5~30 mg/kg,降温效果反而减弱,镇痛效果反而减弱,
CC(C)Cc1ccc([C@@H](C)C(=O)O)cc1 [左旋布洛芬],,,,,,非活性成分
